pIC50: −log10 of the molar value.
System: Dog Coronary Artery
Assay: Dog coronary artery test: relaxation of KCl-contracted coronary artery rings
Type: cell-based
Conditions: coronary artery rings contracted with 50 mM KCl, 37° C., IC50 = 50% relaxation, mean values, probit analysis; for pIC50: Canis lupus familiaris
Experimental: Mongrel dogs of either sex and weighing 15 to 30 kg were anesthetized with pentobarbital (35 mg/kg). Each heart was quickly removed through a right thoracotomy and placed in Kreb's bicarbonate solution of the following composition (mM/L): NaCl, 118.2; KCl, 4.6; CaCl2.2H2 O, 1.6; KH2 PO4, 1.2; MgSO4.7H2 O, 1.2; NaHCO3, 24.8; and dextrose, 10.0. The medium was kept at room temperature and saturated with 95% O2 /5% CO2. The left anterior descending and circumflex coronary arteries were isolated and used either immediately or stored overnight at 5° C. Arteries were cut into rings approximately 2 to 3 mm wide, placed on 2 L-shaped hooks and mounted in a 10 ml organ bath by attaching one hook to a stationary glass rod and the other hook to a force-displacement transducer. Tissue medium consisted of Kreb's bicarbonate solution maintained at 37° C. and bubbled with 95 % O2 /5% CO2. Artery rings were equilibrated for 1-2 hours under a resting tension of 3 g. Tissue medium was then changed to one containing 50 mM KCl and 72.8 mM NaCl but otherwise identical to Kreb's bicarbonate solution. After tissues achieved a steady state contractile tension (1-2 hours) a given test agent was added to each bath and concentration-response curves determined. […] At the end of the concentration-response curve, tissue medium was changed to one identical to the 50 mM KCl buffer but containing 2.5 mM EGTA and no CaCl2.2H2 O to obtain complete relaxation of the tissue. Percent relaxation was then determined for each concentration and values producing 50% relaxation (IC50) were estimated using a probit analysis.

pIC50	-log IC50	Compound
6.30		COCCOC(=O)C1=C(C)NC(C)=C(C(=O)OCCOC)C1c1csc2ccncc12 [Example 8, 1,4-Dihydro-2,6-dimethyl-4-thieno[3,2-c]pyridin-3-yl-3,5-pyridinedicarboxylic acid, bis(2-methoxyethyl)ester]
5.77		CCOC(=O)C1=C(C)NC(C)=C(C(=O)OCC)C1c1csc2c([N+](=O)[O-])cccc12 [Example 25, 1,4-Dihydro-2,6-dimethyl-4-(7-nitrobenzo[b]thien-3-yl)-3,5-pyridinedicarboxylic acid, diethyl ester]
4.97		CCOC(=O)C1=C(C)NC(C)=C(C(=O)OCC)C1c1cc2cnccc2s1 [Example 2, 1,4-Dihydro-2,6-dimethyl-4-(thieno[3,2-c]pyridin-2-yl)-3,5-pyridinedicarboxylic acid, diethyl ester]
7.39		CCOC(=O)C1=C(C)NC(C)=C(C(=O)OCC)C1c1csc2cnccc12 [Example 12, 1,4-Dihydro-2,6-dimethyl-4-thieno[2,3-c]pyridin-3-yl-3,5-pyridinedicarboxylic acid, diethyl ester]
7.08		CCOC(=O)C1=C(C)NC(C)=C(C(=O)OC(C)C)C1c1csc2ccncc12 (centres unmarked) [Example 17, 1,4-Dihydro-2,6-dimethyl-4-thieno[3,2-c]pyridin-3-yl-3,5-pyridinedicarboxylic acid, 3-ethyl 5-isopropyl ester]
7.49		COC(=O)C1=C(C)NC(C)=C(C(=O)OC(C)C)C1c1csc2cnccc12 (centres unmarked) [Example 41, 1,4-Dihydro-2,6-dimethyl-4-thieno[2,3-c]pyridin-3-yl-3,5-pyridinedicarboxylic acid, monomethyl mono(1-methylethyl)ester]
6.90		COC(=O)C1=C(C)NC(C)=C(C(=O)OCCN(C)Cc2ccccc2)C1c1csc2ccncc12 (centres unmarked) [Example 31, 1,4-Dihydro-2,6-dimethyl-4-thieno[3,2-c]pyridin-3-yl-3,5-pyridine dicarboxylic acid, 3-methyl 5-(2-[methyl(phenylmethyl)amino]ethyl)ester]
6.81		CCOC(=O)C1=C(C)NC(C)=C(C(=O)OCC)C1c1csc2cccc([N+](=O)[O-])c12 [Example 28, 1,4-Dihydro-2,6-dimethyl-4-(4-nitrobenzo[b]thien-3-yl)-3,5-pyridinecarboxylic acid, diethyl ester]
6.06		CCOC(=O)C1=C(C)NC(C)=C(C(=O)OCC)C1c1csc2ncccc12 [Example 13, 1,4-Dihydro-2,6-dimethyl-4-thieno[2,3-b]pyridin-3-yl-3,5-pyridinedicarboxylic acid, diethyl ester]
5.56		CCOC(=O)C1=C(C)NC(C)=C(C(=O)OCC)C1c1c(SC)sc2ccccc12 [Example 15, 1,4-Dihydro-2,6-dimethyl-4-[2-(methylthio)benzo[b]thien-3-yl]-3,5-pyridinedicarboxylic acid, diethyl ester]
7.00		COC(=O)C1=C(C)NC(C)=C(C(=O)OCC(C)C)C1c1csc2ccncc12 (centres unmarked) [Example 43, 1,4-Dihydro-2,6-dimethyl-4-thieno[3,2-c]pyridin-3-yl-3,5-pyridinedicarboxylic acid, methyl 2-methylpropyl ester]
6.69		CCOC(=O)C1=C(C)NC(C)=C(C(=O)OCC)C1c1csc2cc([N+](=O)[O-])ccc12 [Example 27, 1,4-Dihydro-2,6-dimethyl-4-(6-nitrobenzo[b]thien-3-yl)-3,5-pyridinedicarboxylic acid, diethyl ester]
7.10		CCOC(=O)C1=C(C)NC(C)=C(C(=O)OCC)C1c1csc2ccccc12 [Example 3, 4-Benzo[b]thien-3-yl-1,4-dihydro-2,6-dimethyl-3,5-pyridinedicarboxylic acid, diethyl ester]
6.90		CCOC(=O)C1=C(C)NC(C)=C(C(=O)OCC)C1c1csc2cccnc12 [Example 11, 1,4-Dihydro-2,6-dimethyl-4-thieno[3,2-b]pyridin-3-yl-3,5-pyridinedicarboxylic acid, diethyl ester]
	7.55	CCOC(=O)C1=C(C)NC(C)=C(C(=O)OCC)C1c1csc2ccncc12 [Example 5, 1,4-Dihydro-2,6-dimethyl-4-thieno[3,2-c]pyridin-3-yl-3,5-pyridinedicarboxylic acid, diethyl ester]
6.05		COCCOC(=O)C1=C(C)NC(C)=C(C(=O)OC(C)C)C1c1csc2ccccc12 (centres unmarked) [Example 39, 4-Benzo[b]thien-3-yl-1,4-dihydro-2,6-dimethyl-3,5-pyridinedicarboxylic acid, 2-methoxyethyl 1-methylethyl ester]
7.00		COC(=O)C1=C(C)NC(C)=C(C(=O)OC)C1c1csc2ccncc12 [Example 9, 1,4-Dihydro-2,6-dimethyl-4-thieno[3,2-c]pyridin-3-yl-3,5-pyridinedicarboxylic acid, dimethyl ester]
5.50		CCOC(=O)C1=C(C)NC(C)=C(C(=O)OCC)C1c1csc2c(C)nccc12 [Example 14, 1,4-Dihydro-2,6-dimethyl-4-(7-methylthieno[2,3-c]pyridin-3-yl)-3,5-pyridinedicarboxylic acid, diethyl ester]
7.04		C#CCOC(=O)C1=C(C)NC(C)=C(C(=O)OC)C1c1csc2ccncc12 (centres unmarked) [Example 48, 1,4-Dihydro-2,6-dimethyl-4-thieno[3,2-c]pyridin-3-yl-3,5-pyridinedicarboxylic acid, methyl 2-propynyl ester]
5.87		CCOC(=O)C1=C(C)NC(C)=C(C(=O)OCC)C1c1csc2cc(N)ccc12 [Example 29, 4-(6-Aminobenzo[b]thien-3-yl)-1,4-dihydro-2,6-dimethyl-3,5-pyridinecarboxylic acid, diethyl ester]
6.78		COCCOC(=O)C1=C(C)NC(C)=C(C(=O)OC(C)C)C1c1csc2ccncc12 (centres unmarked) [Example 37, 1,4-Dihydro-2,6-dimethyl-4-thieno[3,2-c]pyridin-3-yl-3,5-pyridinedicarboxylic acid, 2-methoxyethyl 1-methylethyl ester]
4.40		CCOC(=O)C1=C(C)NC(C)=C(C(=O)OCC)C1c1csc2ccc(Br)cc12 [Example 22, 4-(5-Bromobenzo[b]thien-3-yl)-1,4-dihydro-2,6-dimethyl-3,5-pyridinedicarboxlic acid, diethyl ester]
6.39		CCOC(=O)C1=C(C)NC(C)=C(C(=O)OCC)C1c1c(C)sc2ccccc12 [Example 16, 1,4-Dihydro-2,6-dimethyl-4-(2-methylbenzo[b]thien-3-yl)-3,5-pyridinedicarboxylic acid, diethyl ester]
	6.94	CCOC(=O)C1=C(C)NC(C)=C(C(=O)OCC)C1c1csc2ccncc12 [Example 52, 1,4-Dihydro-2,6-dimethyl-4-thieno[3,2-c]pyridin-3-yl-3,5-pyridinedicarboxylic acid, diethyl ester]
8.12		COC(=O)C1=C(C)NC(C)=C(C(=O)OCC2CC2)C1c1csc2ccncc12 (centres unmarked) [Example 51, 1,4-Dihydro-2,6-dimethyl-4-thieno[3,2-c]pyridin-3-yl-3,5-pyridinedicarboxylic acid, cyclopropylmethyl methyl ester]
4.67		CC1=C(C(=O)OCCN(C)Cc2ccccc2)C(c2csc3ccccc23)C(C(=O)OCCN(C)Cc2ccccc2)=C(C)N1 [Example 32]
